{"source": "PubChem BioAssay (NCI)", "note": "Where “and” joins values, the source holds several entries; their conditions need not be identical. Equal values may be shown once.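 Each compound was tested at five concentrations against cells in 96-well plates for 48 hours. GI50 = concentration required for 50% inhibition of growth. TGI is the concentration that stops growth completely.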", "data": [{"tested_on": "MDA-MB-468 breast", "assay": "NCI-60 cell line screen, 48 h", "values": [{"smiles": "COc1ccc(C2CC(c3ccccc3)=NN2C(=O)c2cc(OC)c(OC)c(OC)c2)cc1O", "note": "(stereo not given)", "GI50": "0.223 µM", "TGI": "0.613 µM"}, {"smiles": "CC(C)n1nc(C#Cc2cccc(O)c2)c2c(N)ncnc21", "GI50": "3.62 µM and 2.22 µM", "TGI": "23.8 µM and 5.51 µM"}, {"smiles": "COc1cc(N2CCN(C(C)C)CC2)ccc1Nc1nc(Nc2ccc(F)cc2C(=O)NCC(O)CO)c2cc[nH]c2n1", "note": "(stereo not given)", "GI50": "4.46 µM", "TGI": "20.5 µM"}, {"smiles": "O=C(O)c1ccc(NCc2nc3ccccc3[nH]2)cc1", "GI50": "> 100 µM", "TGI": "> 100 µM"}, {"smiles": "FC(F)(F)c1cc(Br)cc(-c2cc(-c3ccc4c(c3)OCCO4)[nH]n2)c1", "GI50": "0.345 µM", "TGI": "> 100 µM"}, {"smiles": "CC(=O)OC1CC2C(C)(C)CCC[C@]2(C)C2=C1C(O)=C(C(C)C)C(=O)C2=O", "note": "(stereo not given in full)", "GI50": "1.56 µM", "TGI": "3.81 µM"}, {"smiles": "CC(C)C(=O)Nc1ccc(-c2nc(-c3cccc(OCCN4CCOCC4)c3)c(-c3ccnc(Br)c3)[nH]2)cc1", "GI50": "1.89 µM", "TGI": "4.04 µM"}, {"smiles": "C[C@@H](Oc1ccc(Oc2cnc3ccc(Cl)cc3n2)cc1)C(=O)O", "GI50": "39.9 µM", "TGI": "> 100 µM"}, {"smiles": "COc1ccc(/C(=C/c2ccc3ccccc3c2)c2nn[nH]n2)cc1OC", "GI50": "21.5 µM", "TGI": "> 100 µM"}, {"smiles": "Cc1ccc(S(=O)(=O)OCC(=O)Nc2ccc(C(=O)O)c(O)c2)cc1", "GI50": "29.1 µM", "TGI": "98.6 µM"}, {"smiles": "CN1CCN(Cc2ccc(NC(=O)c3cncc(C#Cc4c(N)ncc5c(F)cccc45)c3)cc2C(F)(F)F)CC1", "GI50": "0.872 µM", "TGI": "1.69 µM"}, {"smiles": "CON=C1C[C@]2(C[C@@H]3C[C@@H](C/C=C(\\C)C[C@@H](C)/C=C/C=C4\\CO[C@@H]5[C@H](O)C(C)=C[C@@H](C(=O)O3)[C@]45O)O2)O[C@H](/C(C)=C/C(C)C)[C@H]1C", "GI50": "12.8 µM", "TGI": "27.5 µM"}, {"smiles": "COc1ccc(C2=NN(C=O)C(c3ccc(OS(=O)(=O)c4ccc(C)cc4)c(OC)c3)C2)cc1", "note": "(stereo not given)", "GI50": "1.44 µM", "TGI": "7.7 µM"}, {"smiles": "CCN(CC)c1ccc2c(c1)Oc1nc(N)c(C#N)c(N)c1C2Sc1ccc(F)cc1", "note": "(stereo not given)", "GI50": "1.61 µM", "TGI": "3.13 µM"}, {"smiles": "Nc1c(C(=O)c2ccc(C#CCN3CCOCC3)cc2)cnn1-c1ccc(F)cc1", "GI50": "> 25 µM", "TGI": "> 25 µM"}, {"smiles": "CC[C@@]1(O)C(=O)OCc2c1cc1n(c2=O)Cc2cc3c(CN(C)C)c(O)ccc3nc2-1", "GI50": "< 0.01 µM and 0.0234 µM", "TGI": "0.0426 µM and 0.108 µM"}, {"smiles": "Nc1nc(=S)c2ncn(C3OC(CO)C(O)C3O)c2[nH]1", "note": "(stereo not given)", "GI50": "0.253 µM", "TGI": "1.69 µM"}, {"smiles": "COc1ccc2nc3cc(Cl)ccc3c(NCCNCC(O)CO)c2c1", "note": "(stereo not given)", "GI50": "0.975 µM", "TGI": "3.16 µM"}, {"smiles": "COc1cc(-c2cc(-c3cccs3)c(C#N)c(N3CCOCC3)n2)cc(OC)c1OC", "GI50": "1.99 µM", "TGI": "7.06 µM"}, {"smiles": "O=C(/C=C/c1ccco1)Nc1ncc(Cc2cccc(C(F)(F)F)c2)s1", "GI50": "0.111 µM", "TGI": "6.93 µM"}, {"smiles": "COc1ccc(Cc2cc(OC)c(OC)c(OC)c2)cc1", "GI50": "0.312 µM", "TGI": "> 100 µM"}, {"smiles": "Cc1cc2c(C(=O)NCC#N)cccc2n1-c1nc2c(c(NCc3ccccc3)n1)CCCC2", "GI50": "0.206 µM", "TGI": "0.422 µM"}, {"smiles": "CCNC(=O)Oc1ccc(/C(=C(\\C)c2ccc(Cl)cc2)c2ccc(OCCN(CC)CC)cc2)cc1", "GI50": "3.63 µM", "TGI": "14.6 µM"}, {"smiles": "COC(=O)[C@H](Cc1ccccc1)NNC(=O)c1csc([C@@H](C[C@H](C(C)C)N(C)C(=O)[C@@H](NC(=O)[C@H]2CCCCN2C)C2CC2)OC(C)=O)n1", "GI50": "0.00652 µM and 0.0025 µM", "TGI": "25 µM and > 100 µM"}, {"smiles": "O=C(COc1cccc(/C=C2\\COc3ccccc3C2=O)c1)c1ccccc1", "GI50": "1.78 µM", "TGI": "4.6 µM"}]}]}
